Experimental data: publication PMC3229200 (Bioorganic & medicinal chemistry, 2011)

Tests used:
[1] = target: σ1 receptor (Homo sapiens, UniProt Q99720); format: binding; settings: 10 μM competing compound, 1 nM [125I]-IAF, RT4 cell membranes
[2] = target: σ2 receptor (Homo sapiens, UniProt Q5BJF2); format: binding; settings: 10 μM competing compound, 1 nM [125I]-IAF, RT4 cell membranes
[3] = target: T1, σ2 receptor (Rattus norvegicus, UniProt Q5U3Y7); test: Competitive σ2 receptor radioligand binding
T1 sequence (Q5U3Y7 1-176): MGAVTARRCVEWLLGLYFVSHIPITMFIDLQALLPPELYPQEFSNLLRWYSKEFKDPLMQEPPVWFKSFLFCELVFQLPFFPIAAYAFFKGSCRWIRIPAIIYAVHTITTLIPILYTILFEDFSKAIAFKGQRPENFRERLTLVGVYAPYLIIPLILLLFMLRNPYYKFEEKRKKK

Chain of σ2 receptor (Homo sapiens, UniProt Q5BJF2) (Q5BJF2 whole entry): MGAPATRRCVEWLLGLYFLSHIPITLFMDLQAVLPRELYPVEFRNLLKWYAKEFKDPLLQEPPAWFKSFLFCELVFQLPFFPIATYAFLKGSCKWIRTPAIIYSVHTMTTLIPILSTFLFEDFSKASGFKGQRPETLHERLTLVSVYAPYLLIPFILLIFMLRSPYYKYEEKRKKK
Chain of σ1 receptor (Q99720 whole entry): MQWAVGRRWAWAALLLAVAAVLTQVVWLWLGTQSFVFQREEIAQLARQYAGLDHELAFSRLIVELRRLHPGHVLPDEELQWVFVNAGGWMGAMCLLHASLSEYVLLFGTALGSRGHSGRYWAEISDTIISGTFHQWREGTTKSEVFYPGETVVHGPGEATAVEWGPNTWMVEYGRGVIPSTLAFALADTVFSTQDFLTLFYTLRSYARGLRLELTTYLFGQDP

Row | Blocking of σ1 receptor photolabeling by [125I]-IAF [1] | Selectivity for the σ2 over the σ1 receptor [3] | Improvement of σ2 selectivity relative to the σ1 receptor, versus 5f ([3]; 5e compared to 5f) | Increase of σ2 affinity versus 5f ([3]; 5e compared to 5f) | Increase of σ2 affinity in comparison to compound 5h ([3]; 5g compared to 5h) | SMILES | Blocking of σ2 receptor photolabeling by [125I]-IAF [2]
1 | left σ1 labeling essentially unaltered | ~ 400 fold | 631 fold | 500 fold |  | COc1ccc(C(=O)NCCCCN2CCc3ccc([N+](=O)[O-])cc3C2)c(OC)c1OC [Compound 5e, 2,3,4-Trimethoxy-N-(4-(7-nitro-3,4-dihydroisoquinoline-2(1H)-yl)butyl)benzamide] | eliminated σ2 labeling
2 |  |  |  |  | 4.5 fold | COc1c(I)ccc(C(=O)NCCCCN2CCc3ccc([N+](=O)[O-])cc3C2)c1O [Compound 5g, 2-Hydroxy-4-iodo-3-methoxy-N-(4-(7-nitro-3,4-dihydroisoquinoline-2(1H)-yl)butyl)benzamide] | 
3 | diminished both bands |  |  |  |  | O=C1c2ccccc2C(=O)N1CCCCN1CCc2ccc([N+](=O)[O-])cc2C1 [Compound 3b, 2-(4-(7-Nitro-3,4-dihydroisoquinoline-2(1H)-yl)butyl)isoindoline-1,3-dione] | diminished both bands
4 |  |  |  |  |  | O=C(CCCN1CCC(O)(c2ccc(Cl)cc2)CC1)c1ccc(F)cc1 [haloperidol, reference compound] | blocked photolabeling

Row | SMILES | Blocking of σ1 receptor photolabeling by [125I]-IAF [1] | Selectivity for the σ2 over the σ1 receptor [3] | Improvement of σ2 selectivity relative to the σ1 receptor, versus 5f ([3]; 5e compared to 5f) | Increase of σ2 affinity versus 5f ([3]; 5e compared to 5f) | Increase of σ2 affinity in comparison to compound 5h ([3]; 5g compared to 5h) | Blocking of σ2 receptor photolabeling by [125I]-IAF [2]
5 | COc1cccc(C(=O)NCCCCN2CCc3ccc([N+](=O)[O-])cc3C2)c1OC [Compound 5f, 2,3-Dimethoxy-N-(4-(7-nitro-3,4-dihydroisoquinoline-2(1H)-yl)butyl)benzamide] | did not block the labeling of either receptor |  |  |  |  | did not block the labeling of either receptor
